{"source": "patent US11932605B1", "about": "“9-(4-nitrobenzylidene)-4-(4-nitrophenyl)-3-cyano-2-methoxy-6,7,8,9-tetrahydro-5h-cyclohepta[b]pyridine as an antimicrobial compound” (KING FAISAL UNIVERSITY, priority 2023, dated 2024)", "key": {"Staphylococcus aureus": {"system": "Staphylococcus aureus", "assay": "Antimicrobial testing by agar dilution, Staphylococcus aureus", "type": "cell-based", "details": "after 10, 20, 40 and 60 min at all dilutions 1:100, 1:200, 1:400, 1:800", "experimental": "(§1) The antimicrobial properties of the 9-(4-Nitrobenzylidene)-4-(4-nitrophenyl)-3-cyano-2-methoxy-6,7,8,9-tetrahydro-5H-cyclohepta[b]pyridine was studied by the method of agar dilution. Test solutions of each compound was prepared in concentration of 1% using dimethylformamide as a solvent then they are diluted in physiological solution to obtain the final experimental dilutions 1:100, 1:200, 1:400, 1:800. The effect of these substances are compared with furacillin in a controllable study. The testing microbes used were gram positive bacteria Staphylococcus aureus, gram negative bacteria Pseudomonas aeruginosa, Escherichia coli and Candida albicans fungi were taken.\n(§2) The experiments used for this survey were meat-pentonlu agar (EPA) for cultivation of bacteria and Saburo environment for fungi. Each experiment used 1 mL of test solution on each plate 500 min. Add 2 drops of emulsified with microbes feel. All experimental samples were taken from the agar after 10, 20, 40, 60 minutes in the environment on the basis of Patrk planted. Bacteria were cultivated at a temperature of 37° C. for 1 day and the mushroom was kept in a thermostat for […] at a temperature of 28° C. Then the results were checked."}, "Escherichia coli": {"system": "Escherichia coli", "assay": "Antimicrobial testing by agar dilution, Escherichia coli", "type": "cell-based", "details": "after 10, 20, 40 and 60 min at all dilutions 1:100, 1:200, 1:400, 1:800", "experimental": "as §1, §2"}, "Pseudomonas aeruginosa": {"system": "Pseudomonas aeruginosa", "assay": "Antimicrobial testing by agar dilution, Pseudomonas aeruginosa", "type": "cell-based", "details": "after 10, 20, 40 and 60 min at all dilutions 1:100, 1:200, 1:400, 1:800", "experimental": "as §1, §2"}, "Candida albicans": {"system": "Candida albicans", "assay": "Antimicrobial testing by agar dilution, Candida albicans", "type": "cell-based", "details": "after 10, 20, 40 and 60 min at all dilutions 1:100, 1:200, 1:400, 1:800", "experimental": "as §1, §2"}}, "data": [{"smiles": "COc1nc2c(c(-c3ccc([N+](=O)[O-])cc3)c1C#N)CCCC/C2=C\\c1ccc([N+](=O)[O-])cc1", "note": "[9-(4-nitrobenzylidene)-4-(4-nitrophenyl)-3-cyano-2-methoxy-6,7,8,9-tetrahydro-5H-cyclohepta[b]pyridine]", "values": [{"measurement": "inhibition activity", "setting": "Staphylococcus aureus", "value": "most higher inhibition activity"}, {"measurement": "inhibition activity", "setting": "Escherichia coli", "value": "most higher inhibition activity"}, {"measurement": "inhibition activity", "setting": "Pseudomonas aeruginosa", "value": "most higher inhibition activity"}, {"measurement": "inhibition activity", "setting": "Candida albicans", "value": "most higher inhibition activity"}, {"measurement": "melting point", "value": "133 to 135", "unit": "°C"}]}]}
